Source: patent publication US20050124533A1, “Glucocorticoid blocking agents for increasing blood-brain barrier permeability stan-261con” (priority 2002, published 2005)
Values belong to the molecule of their own block, whether it stands above or below them.

What was measured:
[1] = in vivo; cited from earlier work
[2] = tested on: sensitive bacterial strains; settings: cited from earlier work
[3] = tested on: dopamine metabolites HVA and DOPAC in the brain; assay: Example 1: brain dopamine metabolites (HVA, DOPAC) in adrenalectomized rats with corticosterone or placebo pellets; format: in vivo, rat; settings: vehicle (placebo) pellet animals; haloperidol 1 mg/kg s.c. or clozapine 15 mg/kg s.c. two hours prior to sacrifice
Procedure: The implanted pellets contained either 100 mg corticosterone (for haloperidol experiments), 50 mg corticosterone (for clozapine experiments) or placebo. Two hours prior to sacrifice the animals were injected with either haloperidol (1 mg/kg s.c; RBI Natick, Mass.) or an equivalent volume of vehicle (0.3% tartaric acid, pH 5.3) or with either clozapine (15 mg/kg s.c.; RBI, Natick, Mass.) or vehicle (0.9% saline plus 0.8% acetic acid).
Animals were sacrificed by decapitation during the first four hours of the light cycle, blood collected and brains removed and frozen on dry ice and stored at −80° C. Corticosterone was measured in plasma by radioimmunoassay (ICN Biochem, Costa Mesa, Calif.) to confirm adrenalectomy and corticosterone replacement. […] Brain regions were dissected within 24-72 hours of slicing. Tissue was placed in 0.1 M perchloric acid with 0.1 mM EDTA and stored for no longer than 2 weeks at −80° C.
Dopamine metabolites homovanillic acid (HVA) and dihydroxyphenylacetic acid (DOPAC) were measured in the brains of the experimental animals. Samples were thawed, homogenized by sonication in 0.1 M perchloric acid/0.1 mM EDTA, and centrifuged for 2 minutes. Tissue pellets were dissolved in 1.0 N NaOH for protein determination (Bio-Rad, Richmond, Calif.). […] DOPAC and HVA were detected using an electrochemical detector. […]

[4] = tested on: blood-brain barrier (BBB) permeability; assay: Example 2: brain haloperidol and clozapine levels in rats given mifepristone or placebo pellet; format: in vivo, rat; settings: mifepristone 200 mg 10-day sustained-release pellet
Procedure: Animal sacrifice is by decapitation during the first four hours of the light cycle. Blood is collected and brains removed and frozen on dry ice for storage at −80° C.

[5] = tested on: blood-brain barrier (BBB) permeability; assay: Example 3: brain Amphotericin B concentration in rats given mifepristone or placebo; format: in vivo, rat; settings: mifepristone 200 mg 10-day sustained release pellet; Amphotericin B 0.1 mg i.v.
[6] = tested on: blood-brain barrier (BBB) permeability; assay: Example 5: brain methotrexate concentration in rats given mifepristone or placebo; format: in vivo, rat; settings: mifepristone 200 mg 10 day sustained-release pellet; methotrexate 0.5 mg i.v.
Procedure: Animal sacrifice is by decapitation during the first four hours of the light cycle. Blood is collected and brains removed and-frozen on dry ice for storage at −80° C. Methotrexate concentration is measured in the brains of the experimental animals.

[7] = tested on: blood-brain barrier (BBB) permeability; assay: Example 4: brain ampicillin concentration in rats given mifepristone or placebo; format: in vivo, rat; settings: mifepristone 200 mg 10-day sustained release pellet; ampicillin 1.5 mg i.v.
Procedure: Animal sacrifice is by decapitation during the first four hours of the light cycle. Blood is collected and brains removed and frozen on dry ice for storage at −80° C. Ampicillin concentration is measured in the brains of the experimental animals.

[8] = tested on: blood-brain barrier (BBB) permeability; assay: Example 6: brain adriamycin concentration in rats given mifepristone or placebo; format: in vivo, rat; settings: mifepristone 2 mg s.c. four hours prior to sacrifice; adriamycin 0.5 mg i.v.
Procedure: Animal sacrifice is by decapitation during the first four hours of the light cycle. Blood is collected and brains removed and frozen on dry ice for storage at −80° C. Adriamycin concentration is measured in the brains of the experimental animals.

[9] = tested on: dopamine metabolites HVA and DOPAC in the brain; assay: Example 2: brain dopamine metabolites (HVA, DOPAC) in rats given mifepristone or placebo pellet; format: in vivo, rat; settings: mifepristone 200 mg 10-day sustained-release pellet
Procedure: Rats (male Sprague Dawley 175-200 grams) are maintained, 3 rats per cage, under controlled temperature and lighting (12 hours light/12 hours dark) with food and water ad libitum. […] Two hours prior to sacrifice the animals are injected with either haloperidol (1 mg/kg s.c; […] RBI, Natick, Mass.) or vehicle (0.9% saline plus 0.8% acetic acid). Animal sacrifice is by decapitation during the first four hours of the light cycle. Blood is collected and brains removed and frozen on dry ice for storage at −80° C. Frozen brains are sliced into 250 μm sections with a cryostat. The medial prefrontal cortex (AP 13.7 to 12.2 mm) is dissected with a scalpel, the striatum (AP 10.7 to 9.7 mm) is removed with stainless steel cannulae from frozen slices and the core and shell of the nucleus accumbens (AP 10.7 to 9.7 mm) is removed. Brain regions are dissected within 24-72 hours of slicing. […] Dopamine metabolites homovanillic acid (HVA) and dihydroxyphenylacetic acid (DOPAC) are measured in the brains of the experimental animals. […] DOPAC and HVA were detected using an electrochemical detector. […] Brain clozapine levels are analyzed by National Medical Services, Inc. (Willow Grove, PN) while brain and plasma haloperidol and reduced haloperidol and plasma clozapine levels are analyzed by Analytical Psychopharmacology Laboratories (Nathan Kline Institute, Orangeburg, N.Y.), both by gas chromotography.

Structure (SMILES): Nc1nc2c(ncn2COCCO)c(=O)[nH]1 [Acyclovir, acyclovir]
- concentrations achieved in the CNS as share of those achieved in plasma [1]: 30-50%

Structure (SMILES): O=C(N[C@H](CO)[C@H](O)c1ccc([N+](=O)[O-])cc1)C(Cl)Cl [Chloramphenicol, chloramphenicol]
- concentration effective against sensitive bacterial strains [2]: ≤ 8 µg/mL

Structure (SMILES): O=C(CCCN1CCC(O)(c2ccc(Cl)cc2)CC1)c1ccc(F)cc1 [haloperidol]
- levels of HVA and DOPAC in the brain [3]: elevated

- brain concentration of clozapine, mifepristone-treated vs placebo ([4]; clozapine 15 mg/kg s.c.): greater
- brain concentration of haloperidol, mifepristone-treated vs placebo ([4]; haloperidol 1 mg/kg s.c.): greater
- brain Amphotericin B concentration, mifepristone-treated vs placebo [5]: greater
- brain methotrexate concentration, mifepristone-treated vs placebo [6]: greater
- brain ampicillin concentration, mifepristone-treated vs placebo [7]: greater
- brain adriamycin concentration, mifepristone-treated vs placebo [8]: greater
Structure (SMILES): CC#C[C@]1(O)CC[C@H]2[C@@H]3CCC4=CC(=O)CCC4=C3[C@@H](c3ccc(N(C)C)cc3)C[C@@]21C [mifepristone, (11,17)-11-[4-(dimethylmino)phenyl]-17-hydroxy-17-(1-propynyl)estra-4,9-dien-3-one]
- increase in brain dopamine metabolite levels following clozapine, mifepristone-treated vs placebo ([9]; clozapine 15 mg/kg s.c.): greater
- increase in brain dopamine metabolite levels following haloperidol, mifepristone-treated vs placebo ([9]; haloperidol 1 mg/kg s.c.): greater
